The source made the active and inactive calls. The calls are words filed in the database; no cut-off is given here.
How the values were obtained:
[1] = molecular target: Mu-type opioid receptor (Homo sapiens) (UniProt P35372); test: Inverse agonist activity at MOR (unknown origin) expressed in HEK293T cells assessed as beta arrestin-2 recruitment upto 10 uM incubated for 20 mins by NanoBiT assay; format: functional, cell-based
[2] = molecular target: T1, Kappa-type opioid receptor (Homo sapiens, UniProt P41145); test: Inverse agonist activity at human KOR expressed in human HTLA cells assessed as beta arrestin-2 recruitment upto 10 uM by ONE-Glo luciferase assay; format: functional, cell-based
T1 sequence (P41145 whole entry): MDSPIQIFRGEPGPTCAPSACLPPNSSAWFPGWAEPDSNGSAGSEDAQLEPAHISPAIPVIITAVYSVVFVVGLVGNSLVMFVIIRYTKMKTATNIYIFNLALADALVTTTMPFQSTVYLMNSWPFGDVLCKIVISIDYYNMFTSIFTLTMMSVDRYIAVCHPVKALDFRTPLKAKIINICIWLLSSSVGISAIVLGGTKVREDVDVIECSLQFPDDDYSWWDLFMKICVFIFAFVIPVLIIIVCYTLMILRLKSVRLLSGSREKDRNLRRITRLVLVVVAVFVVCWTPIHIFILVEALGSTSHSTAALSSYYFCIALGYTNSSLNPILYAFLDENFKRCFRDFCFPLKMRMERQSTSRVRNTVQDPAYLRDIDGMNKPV

[3] = molecular target: T1, Kappa-type opioid receptor; test: Inverse agonist activity at human KOR expressed in human HTLA cells assessed as beta arrestin-2 recruitment at 10 uM by ONE-Glo luciferase assay relative to 1-(5-(2-Chlorophenyl)-7,8-dimethoxy-3-(3-methoxybenzyl)-3H-pyrazolo(3,4-c)isoquinolin-1-yl)-N-(3-methoxybenzyl)-methanamine; format: functional, cell-based
[4] = molecular target: T1, Kappa-type opioid receptor; test: Inverse agonist activity at human KOR expressed in human HTLA cells assessed as beta arrestin-2 recruitment by ONE-Glo luciferase assay; format: functional, cell-based
[5] = molecular target: T2, Delta-type opioid receptor (Homo sapiens, UniProt P41143); test: Inverse agonist activity at human DOR expressed in human HTLA cells assessed as beta arrestin-2 recruitment by ONE-Glo luciferase assay; format: functional, cell-based
T2 sequence (P41143 whole entry): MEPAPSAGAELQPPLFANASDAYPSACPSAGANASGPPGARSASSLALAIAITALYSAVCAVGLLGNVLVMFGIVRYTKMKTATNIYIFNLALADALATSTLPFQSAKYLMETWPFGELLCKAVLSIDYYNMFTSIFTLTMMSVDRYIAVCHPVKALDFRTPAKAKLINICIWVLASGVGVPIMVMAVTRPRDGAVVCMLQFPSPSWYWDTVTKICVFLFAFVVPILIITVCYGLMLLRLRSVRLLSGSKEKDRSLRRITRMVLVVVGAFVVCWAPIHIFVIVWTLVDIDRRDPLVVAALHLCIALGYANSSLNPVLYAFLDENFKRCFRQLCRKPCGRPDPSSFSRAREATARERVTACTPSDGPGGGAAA

Homo sapiens = organism: Homo sapiens; test: Selectivity ratio of EC50 for human DOR expressed in human HTLA cells assessed as beta arrestin-2 recruitment to EC50 for human KOR expressed in human HTLA cells assessed as beta arrestin-2 recruitment; format: cell-based
[6] = Permeability of the compound across blood brain barrier at pH 7.4 at 50 uM incubated for 4 hrs by PAMPA assay; format: ADME; settings: read-out: permeability
[7] = molecular target: T1, Kappa-type opioid receptor; test: Displacement of [3H]diprenorphine from human KOR expressed in HEK293 cells incubated for 60 mins by liquid scintillation method; format: cell-based
[8] = molecular target: T2, Delta-type opioid receptor; test: Displacement of [3H]naltrindole from DOR (unknown origin) upto 1 uM by radioligand binding assay relative to control
[9] = molecular target: Mu-type opioid receptor (Homo sapiens) (UniProt P35372); test: Displacement of [3H]naltrindole from MOR (unknown origin) upto 1 uM by radioligand binding assay relative to control
[10] = molecular target: T1, Kappa-type opioid receptor; test: Displacement of [3H]diprenorphine from human KOR expressed in HEK293 cells assessed as maximum inhibition at 10 uM incubated for 60 mins by liquid scintillation method relative to control; format: cell-based; settings: filed as inverse agonist
[11] = molecular target: T1, Kappa-type opioid receptor; test: Displacement of [3H]diprenorphine from human KOR expressed in HEK293 cells assessed as inhibition constant incubated for 60 mins by liquid scintillation method; format: cell-based
[12] = molecular target: Mu-type opioid receptor (Homo sapiens) (UniProt P35372); test: Inverse agonist activity at human MOR assessed as cAMP inhibition pretreated for 5 mins followed by forskolin treatment measured after 15 mins by Glo-Sensor cAMP cell based assay; format: functional; settings: time 20.0 min
[13] = molecular target: T1, Kappa-type opioid receptor; test: Inverse agonist activity at human KOR assessed as cAMP inhibition pretreated for 5 mins followed by forskolin treatment measured after 15 mins by Glo-Sensor cAMP cell based assay; format: functional; settings: time 20.0 min
[14] = molecular target: T2, Delta-type opioid receptor; test: Inverse agonist activity at human DOR assessed as cAMP inhibition pretreated for 5 mins followed by forskolin treatment measured after 15 mins by Glo-Sensor cAMP cell based assay; format: functional; settings: time 20.0 min

Chain of Mu-type opioid receptor (Homo sapiens) (P35372 whole entry): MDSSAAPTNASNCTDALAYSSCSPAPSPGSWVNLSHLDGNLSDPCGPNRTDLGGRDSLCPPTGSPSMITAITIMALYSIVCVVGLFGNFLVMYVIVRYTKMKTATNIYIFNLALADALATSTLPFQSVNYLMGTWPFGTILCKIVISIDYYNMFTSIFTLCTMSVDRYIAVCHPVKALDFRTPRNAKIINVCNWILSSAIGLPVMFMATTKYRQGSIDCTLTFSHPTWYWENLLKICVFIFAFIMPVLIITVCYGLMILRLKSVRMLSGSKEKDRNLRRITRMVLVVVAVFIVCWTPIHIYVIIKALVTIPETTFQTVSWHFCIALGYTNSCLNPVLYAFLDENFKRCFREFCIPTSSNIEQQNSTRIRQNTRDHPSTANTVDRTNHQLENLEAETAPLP

Row | Structure (SMILES) | Activity [1] | EC50 [4] [nM] | Emax [3] [%] | other results
1 | COc1cccc(Cn2nc(CNc3ccc4ccccc4c3)c3c4cc(OC)c(OC)cc4c(-c4ccccc4Cl)nc32)c1 | inactive |  |  | Activity [2]: inactive; Activity [3]: inactive
2 | COc1cccc(Cn2nc(CNCc3ccc4ccccc4c3)c3c4cc(OC)c(OC)cc4c(-c4ccccc4Cl)nc32)c1 | inactive | 94.3 | -97.6 | 
3 | COc1cc2c(-c3ccccc3Cl)nc3c(c(CNCc4cccc(Oc5ccccc5)c4)nn3CC3CCNCC3)c2cc1OC | inactive | 2670 | -95.1 | 
4 | COc1cccc(Cn2nc(CNCCc3cccc(Oc4ccccc4)c3)c3c4cc(OC)c(OC)cc4c(-c4ccccc4Cl)nc32)c1 | inactive | 227 | -81.9 | 
5 | COc1cccc(Cn2nc(CNCc3cccc4ccccc34)c3c4cc(OC)c(OC)cc4c(-c4ccccc4Cl)nc32)c1 | inactive | 430 | -96.7 | 
6 | COc1cccc(Cn2nc(CNCCc3ccc4ccccc4c3)c3c4cc(OC)c(OC)cc4c(-c4ccccc4Cl)nc32)c1 | inactive | 69.9 | -97.2 | EC50 [5]: 691 nM; Ratio EC50 (Homo sapiens): 10
7 | COc1cccc(CNCc2nn(Cc3cccc(OC)c3)c3ncc4cc(OC)c(OC)cc4c23)c1 | inactive |  |  | Activity [2]: inactive; Activity [3]: inactive
8 | COc1ccc(CNCc2nn(Cc3cccc(OC)c3)c3nc(-c4ccccc4Cl)c4cc(OC)c(OC)cc4c23)cc1 | inactive | 103 | -98.2 | 
9 | COc1cccc(CNCc2n[nH]c3nc(-c4ccccc4Cl)c4cc(OC)c(OC)cc4c23)c1 | inactive |  |  | Activity [2]: inactive; Activity [3]: inactive
10 | COc1cccc(Cn2nc(CNCc3ccccc3Oc3ccccc3)c3c4cc(OC)c(OC)cc4c(-c4ccccc4Cl)nc32)c1 | inactive | 54.5 | -104 | 
11 | COc1cccc(Cn2nc(CNCc3ccc(Oc4ccccc4)cc3)c3c4cc(OC)c(OC)cc4c(-c4ccccc4Cl)nc32)c1 | inactive | 338 | -91.8 | 
12 | CC(=O)[C@H]1CC[C@H]2[C@@H]3CCC4=CC(=O)CC[C@]4(C)[C@H]3CC[C@]12C [PROGESTERONE] |  |  |  | Papp at 4 h, 50 µM [6]: 37.8 ×10⁻⁶ cm/s
13 | COc1cccc(CCNCc2nn(Cc3cccc(OC)c3)c3nc(-c4ccccc4Cl)c4cc(OC)c(OC)cc4c23)c1 | inactive | 1060 | -72.8 | 
14 | COc1cccc(Cn2nc(CNCc3cccc(OCc4ccccc4)c3)c3c4cc(OC)c(OC)cc4c(-c4ccccc4Cl)nc32)c1 | inactive | 9.33 | -103 | IC50 [7]: 250 nM; inhibition [8]: 10%; inhibition [9]: 20%; EC50 [5]: 207 nM; Imax [10]: 72%; Ratio EC50 (Homo sapiens): 22; Ki [11]: 100 nM
15 | COc1cccc(Cn2nc(CNc3cccc(OC)c3)c3c4cc(OC)c(OC)cc4c(-c4ccccc4Cl)nc32)c1 | inactive |  |  | Activity [2]: inactive; Activity [3]: inactive
16 | COc1cccc(Cn2nc(CNCc3cccc(Oc4ccccc4)c3)c3c4cc(OC)c(OC)cc4c(-c4ccccc4Cl)nc32)c1 | inactive | 9.1 | -100 | EC50 [5]: 49.5 nM; Ratio EC50 (Homo sapiens): 5
17 | COc1cc2c(-c3ccccc3Cl)nc3c(c(CNCc4cccc(Oc5ccccc5)c4)nn3CC3CCN(C(=O)OC(C)(C)C)CC3)c2cc1OC | inactive | 674 | -99.4 | 
18 | COc1cccc(Cn2nc(CNCc3cc4ccccc4[nH]3)c3c4cc(OC)c(OC)cc4c(-c4ccccc4Cl)nc32)c1 | inactive | 339 | -98.3 | 
19 | COc1cccc(Cn2nc(CNCc3ccc(OC)c(OC)c3)c3c4cc(OC)c(OC)cc4c(-c4ccccc4Cl)nc32)c1 | inactive | 643 | -103 | 
20 | COc1cc2c(-c3ccccc3Cl)nc3c(c(CNCc4cccc(Oc5ccccc5)c4)nn3Cc3cccc(Cl)c3)c2cc1OC | inactive | 105 | -101 | 
21 | COc1cccc(CNCc2nn(Cc3cccc(OC)c3)c3nc(-c4ccccc4Cl)c4cc(OC)c(OC)cc4c23)c1 | inactive | 127 |  | Activity [12]: inactive; Activity [13]: inactive; EC50 [5]: 483 nM; Activity [14]: inactive
22 | CNC(=C[N+](=O)[O-])NCCSCc1ccc(CN(C)C)o1.Cl [RANITIDINE HYDROCHLORIDE] |  |  |  | Papp at 4 h, 50 µM [6]: 0.12 ×10⁻⁶ cm/s
23 | O=C(Cc1ccc(Cl)c(Cl)c1)N1CCCC[C@H]1CN1CCCC1 |  | 10.5 | -100 | 

Reference: ChEMBL document CHEMBL5380841, “Discovery and Binding Mechanism of Pyrazoloisoquinoline-Based Novel β-Arrestin Inverse Agonists of the Kappa-Opioid Receptor” (J Med Chem, 2023)
